Test results reported in the NIST ThermoML archive (doi:10.1021/je400839x).

Experiment: xn = mol fraction of the nth substance listed
Settings: for viscosity / speed of sound / mass density: 101 kPa, Liquid; for viscosity: Concentric cylinders viscometry; for speed of sound: Pulse-echo method; for mass density: Vibrating tube method; for surface tension liquid-gas: 294 K, Pendant drop shape

CC(CC(C)(C)C)CC(C)(C)C [2,2,4,6,6-pentamethylheptane] + CCCCCCCCCCCCCCCC
Settings	mass density [kg/m3]	speed of sound [m/s]	viscosity [mPa·s]
293.15 K, x1 = 0.1261	770.6	1342.7	3.1
293.15 K, x1 = 0.2449	767.8	1327.4	2.79
293.15 K, x1 = 0.4087	763.6	1304.9	2.41
293.15 K, x1 = 0.562	759.5	1282.2	2.09
293.15 K, x1 = 0.7036	755.3	1259.1	1.8
293.15 K, x1 = 0.8368	751	1235.8	1.56
293.15 K, x1 = 1	745.5	1204	1.29
303.15 K, x1 = 0.1261	763.8	1305.2	2.47
303.15 K, x1 = 0.2449	760.9	1290	2.25
303.15 K, x1 = 0.4087	756.8	1267.4	1.97
303.15 K, x1 = 0.562	752.6	1244.5	1.72
303.15 K, x1 = 0.7036	748.3	1221.1	1.5
303.15 K, x1 = 0.8368	743.9	1197.4	1.31
303.15 K, x1 = 1	738.2	1164.9	1.1
313.15 K, x1 = 0.1261	756.8	1268.4	2.03
313.15 K, x1 = 0.2449	754	1253.3	1.86
313.15 K, x1 = 0.4087	749.8	1230.7	1.64
313.15 K, x1 = 0.562	745.6	1207.5	1.44
313.15 K, x1 = 0.7036	741.3	1183.8	1.27
313.15 K, x1 = 0.8368	736.8	1159.8	1.11
313.15 K, x1 = 1	730.9	1126.7	0.941
323.15 K, x1 = 0.1261	749.9	1232.5	1.68
323.15 K, x1 = 0.2449	747.1	1217.2	1.55
323.15 K, x1 = 0.4087	742.9	1194.6	1.38
323.15 K, x1 = 0.562	738.6	1171.2	1.23
323.15 K, x1 = 0.7036	734.2	1147.2	1.09
323.15 K, x1 = 0.8368	729.6	1122.9	0.966
323.15 K, x1 = 1	723.5	1089.3	0.827
333.15 K, x1 = 0.1261	742.9	–	1.42
333.15 K, x1 = 0.2449	740.1	–	1.32
333.15 K, x1 = 0.4087	735.8	–	1.18
333.15 K, x1 = 0.562	731.5	–	1.06
333.15 K, x1 = 0.7036	727	–	0.944
333.15 K, x1 = 0.8368	722.3	–	0.843
333.15 K, x1 = 1	716.1	–	0.726
343.15 K, x1 = 0.1261	735.9	–	1.22
343.15 K, x1 = 0.2449	733	–	1.14
343.15 K, x1 = 0.4087	728.7	–	1.02
343.15 K, x1 = 0.562	724.4	–	0.922
343.15 K, x1 = 0.7036	719.7	–	0.827
343.15 K, x1 = 0.8368	714.9	–	0.742
343.15 K, x1 = 1	708.6	–	0.643
353.15 K, x1 = 0.1261	728.8	–	1.06
353.15 K, x1 = 0.2449	725.9	–	0.988
353.15 K, x1 = 0.4087	721.5	–	0.894
353.15 K, x1 = 0.562	717.1	–	0.81
353.15 K, x1 = 0.7036	712.3	–	0.73
353.15 K, x1 = 0.8368	707.5	–	0.658
353.15 K, x1 = 1	700.9	–	0.573
363.15 K, x1 = 0.1261	721.7	–	0.928
363.15 K, x1 = 0.2449	718.8	–	0.87
363.15 K, x1 = 0.4087	714.4	–	0.791
363.15 K, x1 = 0.562	709.8	–	0.719
363.15 K, x1 = 0.7036	704.9	–	0.651
363.15 K, x1 = 0.8368	700	–	0.589
363.15 K, x1 = 1	693.2	–	0.515
373.15 K, x1 = 0.1261	714.5	–	0.823
373.15 K, x1 = 0.2449	711.7	–	0.773
373.15 K, x1 = 0.4087	707.1	–	0.706
373.15 K, x1 = 0.562	702.5	–	0.644
373.15 K, x1 = 0.7036	697.5	–	0.585
373.15 K, x1 = 0.8368	692.3	–	0.531
373.15 K, x1 = 1	685.5	–	0.467

Settings	surface tension liquid-gas [mN/m]
x1 = 0.1261	25.9
x1 = 0.2449	25.3
x1 = 0.4087	24.3
x1 = 0.562	23.8
x1 = 0.7036	23.1
x1 = 0.8368	22.5
x1 = 1	21.8
